pIC50: −log10 of the molar value.
Columns and labels:
[1] = system: Influenza A H9N2 virus neuraminidase; assay: Inhibition of Influenza A H9N2 virus neuraminidase activity after 2 hrs by spectrofluorometry
[2] = system: wild type H1N1 swine influenza virus neuraminidase; assay: Inhibition of wild type H1N1 swine influenza virus neuraminidase activity expressed in HEK293T cells after 2 hrs by spectrofluorometry

O=C(C=Cc1ccc(O)cc1)c1ccc(O)cc1O
pIC50 [1]: 4.42
pIC50 [2]: 4.87

From BindingDB's records for doi:10.1016/j.bmcl.2010.11.016 (Chosun University, 2011)
